Legend:
[1] = tested on: S. aureus Newman; assay: fitness (endpoint OD595 vs no drug) (fraction); higher = more growth
How it was run: (§1)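 With the first reading as background, OD595 was measured every 30 min for 14 h in 384-well plates kept at 37 °C and inoculated at OD595 0.01. TSB, LB Lennox or CY was the medium. Fitness is the optical density at the transition into stationary phase divided by the robust mean of no-drug control wells, with a cap of 1.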

[2] = tested on: B. subtilis 168; assay: Bliss interaction score (quartile over a dose matrix) (fitness difference); higher = more antagonism (negative = synergy)
How it was run: (§2)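 Combination data were used to infer fitness under each single drug. Fitness is the OD595 at entry into stationary phase divided by the robust mean of the plate's no-drug wells, with a cap of 1. The Bliss score is the observed minus the expected product fitness, summarised by quartiles over technical, biological and donor/recipient replicates.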

[3] = tested on: S. aureus DSM 20231; assay: as above
How it was run: as §2

[4] = tested on: S. pneumoniae D39V; assay: as above
How it was run: as §2

[5] = tested on: S. aureus DSM 20231; assay: fitness (endpoint OD595 vs no drug) (fraction); higher = more growth
How it was run: as §1

[6] = tested on: S. aureus Newman; assay: Bliss interaction score (quartile over a dose matrix) (fitness difference); higher = more antagonism (negative = synergy)
How it was run: as §2
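For Bliss interaction score (quartile over a dose matrix) in this document: first quartile when negative (synergy) and third quartile when positive (antagonism).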

O=C(N[C@H](CO)[C@H](O)c1ccc([N+](=O)[O-])cc1)C(Cl)Cl [Chloramphenicol] + CC(C1CCC(C(O1)OC2C(CC(C(C2O)OC3C(C(C(CO3)(C)O)NC)O)N)N)N)NC [Gentamicin]
fitness, [1], main component drawn
Settings	partner 0.375 µg/mL	partner 0.5 µg/mL	partner 0.75 µg/mL	partner 1 µg/mL	partner 1.5 µg/mL	partner 2 µg/mL
first compound 0.75 µg/mL	0.778	0.868	0.778	0.974	0.765	≥ 1
first compound 1.5 µg/mL	0.507	0.775	0.543	0.893	0.561	0.871
first compound 3 µg/mL	0.208	0.436	0.223	0.487	0.231	0.512

main component drawn
Settings	Bliss interaction score
[2]	0.13
[3]	0.0877
[4]	-0.162

O=C(N[C@H](CO)[C@H](O)c1ccc([N+](=O)[O-])cc1)C(Cl)Cl [Chloramphenicol] + CCC[C@@H]1C[C@@H](C(=O)N[C@@H]([C@H]2O[C@H](SC)[C@H](O)[C@@H](O)[C@H]2O)[C@H](C)Cl)N(C)C1 [Clindamycin]
fitness
Settings	first compound 0.75 µg/mL	first compound 1.5 µg/mL	first compound 3 µg/mL
[1], partner 0.0312 µg/mL	0.539	0.392	0.11
[1], partner 0.0625 µg/mL	–	–	0.0976
[1], partner 0.125 µg/mL	0.0906	0.0591	0.0645
[5], partner 0.0312 µg/mL	–	–	0.137
[5], partner 0.0625 µg/mL	0.0956	–	0.0841
[5], partner 0.125 µg/mL	0.0527	0.0897	0.0677

Settings	Bliss interaction score
[3]	0.0541
[4]	0.155
[6]	-0.0758

O=C(N[C@H](CO)[C@H](O)c1ccc([N+](=O)[O-])cc1)C(Cl)Cl [Chloramphenicol] + CN(C)C(=O)C(CCN1CCC(O)(c2ccc(Cl)cc2)CC1)(c1ccccc1)c1ccccc1 [Loperamide]
Settings	Bliss interaction score
[2]	-0.18
[4]	0.146
[6]	-0.0555

O=C(N[C@H](CO)[C@H](O)c1ccc([N+](=O)[O-])cc1)C(Cl)Cl [Chloramphenicol] + CO[C@H]1/C=C/O[C@@]2(C)Oc3c(C)c(O)c4c(O)c(c(/C=N/N5CCN(C)CC5)c(O)c4c3C2=O)NC(=O)/C(C)=C\C=C\[C@H](C)[C@H](O)[C@@H](C)[C@@H](O)[C@@H](C)[C@H](OC(C)=O)[C@@H]1C [Rifampicin]
Settings	Bliss interaction score
[3]	0.0582
[4]	0.069
[6]	0.0185

From the supplement of paper PMC10627819
